Data reported in patent US20220348970A1, “METHODS AND COMPOSITIONS FOR 3-HYDROXYPROPIONATE PRODUCTION” (The Regents of the University of California, priority 2017, published 2022).

Key:
[1] = molecular target: T1, OAADC A0A0D6NFJ6_9PROT, SEQ ID NO: 166 (Acetobacter indonesiensis, UniProt A0A6N3T5V0); test: OAADC kinetics of A0A0D6NFJ6_9PROT on oxaloacetate; type: biochemical; conditions: pH 7.2, 21° C.
T1 sequence (A0A6N3T5V0 with tags, fused parts or gaps): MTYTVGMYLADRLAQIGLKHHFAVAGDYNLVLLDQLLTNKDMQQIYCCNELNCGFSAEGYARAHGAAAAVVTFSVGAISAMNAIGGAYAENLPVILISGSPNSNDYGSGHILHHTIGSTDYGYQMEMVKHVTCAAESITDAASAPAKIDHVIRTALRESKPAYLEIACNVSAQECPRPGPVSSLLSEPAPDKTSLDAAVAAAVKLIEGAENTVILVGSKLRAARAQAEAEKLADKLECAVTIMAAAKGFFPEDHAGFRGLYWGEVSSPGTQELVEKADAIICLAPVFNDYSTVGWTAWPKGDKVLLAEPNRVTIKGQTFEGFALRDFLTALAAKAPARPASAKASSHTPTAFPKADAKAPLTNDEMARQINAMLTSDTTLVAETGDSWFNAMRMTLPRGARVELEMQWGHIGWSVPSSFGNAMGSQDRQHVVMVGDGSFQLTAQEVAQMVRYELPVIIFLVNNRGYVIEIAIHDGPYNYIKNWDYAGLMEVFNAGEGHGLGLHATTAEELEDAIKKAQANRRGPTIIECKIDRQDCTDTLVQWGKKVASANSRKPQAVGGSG
Protocol: All substrates were dissolved in MilliQ H2O and the pH was adjusted to 7.2 as necessary. Activity for oxaloacetate, pyruvate, and 2-ketoisovalerate was measured at a 1 mM substrate concentration. The assay was performed in a 96-well half-area plate. Each reaction contained reaction buffer (100 mM HEPES, 100 mM NaCl, 10% glycerol, pH 7.2), ADH (Sigma-Aldrich, A7011, 100 U/mL for pyruvate, 600 U/mL for oxaloacetate, and 600 U/mL for 2-ketoisovalerate), and a final concentration of 0.5 mM NADPH, 0.1 mM TPP, and 1 mM MgSO4. A range of substrate concentrations (0.1 mM-5 mM) were uSEQ to perform steady-state kinetics measurement over a period of one hour. Absorbance readings were taken at one minute intervals at 340 nm at 21° C. for 60 minutes using the Synergy H1 spectrophotometer (Biotek). Kinetic parameters (ka and Ks1) were determined by fitting initial velocity versus substrate concentration data to the Michaelis-Menten equation.
A second round of genome mining was conducted as described in Example 1, except using the 4COK sequence as the input. Genes encoding candidate OAADCs were synthesized and expressed in E. coli for further characterization. OAADC activity was assayed as described in Example 1.

[2] = molecular target: T2, pyruvate decarboxylase from Gluconacetobacter diazotrophicus (4COK), SEQ ID NO: 1 (Gluconacetobacter diazotrophicus, UniProt A9H275); test: Steady-state kinetics of 4COK decarboxylase on pyruvate and oxaloacetate (ADH/NADPH coupled, 340 nm); type: biochemical; conditions: pH 7.2, 21° C., 0.1 mM-5 mM substrate
T2 construct: likely strain PAl 5 (ATCC 49037 / DSM 5601)
T2 sequence (A9H275 1-558): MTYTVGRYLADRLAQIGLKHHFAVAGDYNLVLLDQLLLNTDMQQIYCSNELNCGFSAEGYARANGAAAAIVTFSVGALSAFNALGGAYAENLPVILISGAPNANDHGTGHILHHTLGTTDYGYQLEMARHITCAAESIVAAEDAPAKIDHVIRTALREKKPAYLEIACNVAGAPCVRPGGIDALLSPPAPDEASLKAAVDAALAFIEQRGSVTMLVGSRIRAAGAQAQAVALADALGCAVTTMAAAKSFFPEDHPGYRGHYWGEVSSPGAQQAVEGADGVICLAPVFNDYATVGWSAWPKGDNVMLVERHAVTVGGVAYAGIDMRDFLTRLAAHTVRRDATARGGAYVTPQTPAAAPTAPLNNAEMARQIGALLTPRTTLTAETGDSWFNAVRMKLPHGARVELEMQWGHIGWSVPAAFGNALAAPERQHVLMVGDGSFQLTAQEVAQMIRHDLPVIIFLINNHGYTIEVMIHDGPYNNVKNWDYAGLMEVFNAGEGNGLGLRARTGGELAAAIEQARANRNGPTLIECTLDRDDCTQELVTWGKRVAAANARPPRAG
Protocol: Overnight cultures of BLR cells suspended in a 2 mL volume were transformed with a pet29b+ plasmid (encoding polypeptides of interest with a C-terminal His-tag) and grown in Terrific Broth with 50 μg/ml kanamycin. Cultures were diluted 1:1.000 in 500 ml of Terrific Broth with 1 mM MgSO4, 1% glucose and 50 μg/ml antibiotic and then grown at 37° C. for 24 hours. Cultures were pelleted down at 4,700 RPM for 10 minutes and resuspended in auto-induction media (LB broth, 1 mM MgSO4, 0.1 mM TPP, 1×NPS and 1×5052) for induction at 18° C. for 20 hours. […] Protein concentrations were determined using a Synergy H1 spectrophotometer (Biotek) by measuring absorbance at 280 nm using calculated extinction coefficients.
All substrates were dissolved in MilliQ H2O and the pH was adjusted to 7.2 as necessary. Activity for oxaloacetate, pyruvate, and 2-ketoisovalerate was measured at a 1 mM substrate concentration. […] Absorbance readings were taken at one minute intervals at 340 nm at 21° C. for 60 minutes using the Synergy H1 spectrophotometer (Biotek). Kinetic parameters (ka and Ks1) were determined by fitting initial velocity versus substrate concentration data to the Michaelis-Menten equation. […]

SMILES: O=C(O)CC(=O)C(=O)O [Oxaloacetate]
- Km [1]: > 20 mM
- Km [2]: > 20 mM
